Results as given in US7019023B2, “Benzothiepine 1, 1-dioxide derivatives, a process for their preparation, pharmaceuticals comprising these compounds, and their use” (Aventis Pharma Deutschland GmbH, priority 1998, dated 2006).

These molecules were tested on bile acid transport in the ileum and the fecal excretion of bile acids (assay: ED200 excretion: fecal excretion of 14C-taurocholate in the rat after oral administration twice daily). Conditions: Rattus norvegicus, po, 24 h, twice daily for one day, male Wistar rats; dose which increases fecal excretion of 14C taurocholic acid to 200% of control; diastereomer mixture unless stated.
Format: in vivo
Method: The biological testing of the compounds according to the invention was carried out by determination of the ED200 excretion. This testing investigates the action of the compounds according to the invention on the bile acid transport in the ileum and the fecal excretion of bile acids in the rat after oral administration twice daily. The diastereomer mixtures of the compounds were tested.
The following recipe was used for the formulation of an aqueous solution:
the substances were dissolved in adequate volumes of an aqueous solution comprising Solutol (=polyethylene glycol […] hydroxystearate; BASF, Ludwigshafen, Germany; Batch No. 1763), so that a final concentration of 5% of Solutol is present in the aqueous solution. The solutions/suspensions were administered orally in a dose of 5 ml/kg. 2) Experimental Conditions
Male Wistar rats (Kastengrund, Hoechst AG, weight range 250–350 g) were kept in groups of 6 animals each and received a standard feed mixture (Altromin, Lage, Germany) from 10 days before the start of treatment (day 1) with a reversed day/night rhythm (4.00–16.00 dark, 16.00–4.00 light). Three days before the start of the experiment (day 0), the animals were divided into groups of 4 animals each.
After intravenous or subcutaneous administration of 5 μCi of ^14C-taurocholate per rat (day 0), the vehicles or test substances were given at 7.00–8.00 and at 15.00–16.00 on the following day (day 1) (treatment for one day).
Stool samples for the analysis of C-taurocholate were taken every 24 hours directly after the administration of the morning dose. The feces were weighed, stored at −18° C. and later suspended in 100 ml of demineralized water and homogenized (Ultra Turrax, Janke & Kunkel, IKA-Werk). Aliquot parts (0.5 g) were weighed and combusted on combustion lids (Combusto Cones, Canberra Packard) in a combustion apparatus (Tri Carb® 307 combuster Canberra Packard GmbH, Frankfurt am Main, Germany). The resulting ^14CO2 was absorbed with Carbo-Sorb® (Canberra Packard). The following ^14C radioactivity measurements were determined after addition of the scintillator (Perma-Fluor complete scintillation cocktail No. 6013187, Packard) to the samples with the aid of liquid scintillation counting (LSC). The fecal excretion of ^14C-taurocholic acid was calculated as a cumulative and/or percentage residual radioactivity (see below).
The fecal excretion of ^14C-TCA was determined in combusted aliquot parts of the stool samples taken at 24-hour intervals, calculated as the “cumulative percentage” of the administered activity and expressed as a % of the residual activity (=remaining activity, i.e. administered activity minus the already excreted activity). For the calculation of the dose-response curves, the excretion of ^14C taurocholic acid was expressed as a percentage proportion of the corresponding values of the control group (treated with vehicle). The ED200, i.e. the dose which increases the fecal excretion of ^14C taurocholic acid to 200% of the control group, is calculated from a sigmoid or linear dose-response curve by interpolation. The calculated ED200 corresponds to a dose which doubles the fecal excretion of bile acids.

Row | Compound | ED (200% of control) [mg/kg/day]
1 | CCCC[C@]1(CC)CS(=O)(=O)c2ccc(N(C)C)cc2[C@@H](c2cccc(NC(=O)[C@H](OC(C)=O)[C@@H](OC(C)=O)[C@H](OC(C)=O)[C@@H](COC(C)=O)OC(C)=O)c2)[C@H]1O [Example 2] | 0.008
2 | CCCC[C@]1(CC)CS(=O)(=O)c2ccc(N(C)C)cc2[C@@H](c2cccc(NC(=O)CCCCNC(=O)[C@H](O)[C@@H](O)[C@H](O)[C@H](O)CO)c2)[C@H]1O [Example 9] | 0.007
3 | CCCC[C@]1(CC)CS(=O)(=O)c2ccc(N(C)C)cc2[C@@H](c2cccc(NC(=O)CCCCNC(=O)[C@H](OC(C)=O)[C@@H](OC(C)=O)[C@H](OC(C)=O)[C@@H](COC(C)=O)OC(C)=O)c2)[C@H]1O [Example 8] | 0.007
4 | CCCCC1(CCCC)CS(=O)(=O)c2ccc(N(C)C)cc2[C@@H](c2cccc(NC(=O)[C@H](OC(C)=O)[C@@H](OC(C)=O)[C@H](OC(C)=O)[C@@H](COC(C)=O)OC(C)=O)c2)[C@H]1O [Example 6] | 0.04
5 | CCCCC1(CCCC)CS(=O)(=O)c2ccc(N(C)C)cc2[C@@H](c2cccc(NC(=O)[C@H](O)[C@@H](O)[C@H](O)[C@H](O)CO)c2)[C@H]1O [Example 7] | 0.04
6 | CCCC[C@]1(CC)CS(=O)(=O)c2ccc(N(C)C)cc2[C@@H](c2cccc(NC(=O)CCCCN(C[C@H](OC(C)=O)[C@@H](OC(C)=O)[C@H](OC(C)=O)[C@@H](COC(C)=O)OC(C)=O)C(C)=O)c2)[C@H]1O [Example 10] | 0.04
7 | CCCC[C@]1(CC)CS(=O)(=O)c2ccc(N(C)C)cc2[C@@H](c2cccc(NC(=O)CCCCBr)c2)[C@H]1O [Comparison Example 2, reference compound] | 1
8 | CCCC[C@]1(CC)CS(=O)(=O)c2ccc(N(C)C)cc2[C@@H](c2cccc(NC(=O)CCCC[N+](CC)(CC)CC)c2)[C@H]1O [Comparison Example 3, reference compound] | 0.9
9 | CCCC[C@]1(CC)CS(=O)(=O)c2ccc(N(C)C)cc2[C@@H](c2cccc(NC(=O)[C@H](O)[C@@H](O)[C@H](O)[C@H](O)CO)c2)[C@H]1O [Example 1] | 0.009
10 | CCCC[C@]1(CC)CS(=O)(=O)c2ccc(N(C)C)cc2[C@@H](c2cccc(N)c2)[C@H]1O [Comparison Example 1, reference compound] | 0.8

Same assay, conditions: p.o., twice daily for one day, male Wistar rats; dose which increases fecal excretion of 14C taurocholic acid to 200% of control; diastereomer mixture unless stated

Row | Compound | ED200 excretion [mg/kg/day]
11 | CCCC[C@]1(CC)CS(=O)(=O)c2ccc(N(C)C)cc2[C@@H](c2cccc(NC(=O)CCCCNC[C@H](O)[C@@H](O)[C@H](O)[C@H](O)CO)c2)[C@H]1O [3 (pure structure 11a)] | 0.008
12 | CCCC[C@]1(CC)CS(=O)(=O)c2ccc(N(C)C)cc2[C@@H](c2cccc(NC(=O)CCCCNC[C@H](O)[C@@H](O)[C@H](O)[C@H](O)CO)c2)[C@H]1O [Example 3] | 0.04
